Results: the supplement of paper PMC10307832

Legend:
Experiment in all cases: relative viability (nuclei count vs DMSO), 5 days (fraction); higher = more cells survive
[1] = tested on: NCI-H1792
Outline: (§1)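 Dosing by pin tool came one day after lung cancer cell lines were seeded in 1536-well plates, using either one drug or a fixed anchor-drug dose plus five library-drug doses (not always all listed) in √10 steps. After 5 days, nuclei were counted on 4× images. Relative viability is treated-well nuclei count divided by vehicle-well nuclei count, and values are medians of duplicate plates.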

[2] = tested on: H3255
Outline: as §1

[3] = tested on: LC-2-ad
Outline: as §1

[4] = tested on: NCI-H2126
Outline: as §1

[5] = tested on: NCI-H441
Outline: as §1

[6] = tested on: SK-LU-1
Outline: as §1

[7] = tested on: NCI-H460
Outline: as §1

[8] = tested on: NCI-H1793
Outline: as §1

[9] = tested on: EKVX
Outline: as §1

[10] = tested on: EMC-BAC-2
Outline: as §1

[11] = tested on: PC-3 [JPC-3]
Outline: as §1

[12] = tested on: HARA
Outline: as §1

[13] = tested on: NCI-H1915
Outline: as §1

[14] = tested on: NCI-H1437
Outline: as §1

[15] = tested on: HCC-15
Outline: as §1

[16] = tested on: LU99A
Outline: as §1

[17] = tested on: LCLC-97TM1
Outline: as §1

[18] = tested on: NCI-H322M
Outline: as §1

[19] = tested on: NCI-H1944
Outline: as §1

[20] = tested on: NCI-H661
Outline: as §1

[21] = tested on: NCI-H23
Outline: as §1

[22] = tested on: ChaGo-K-1
Outline: as §1

[23] = tested on: HCC-827
Outline: as §1

O=c1[nH]c2ccccc2n1C1CCN(CCCC(c2ccc(F)cc2)c2ccc(F)cc2)CC1 [Pimozide] + CC(=O)Nc1cccc(-n2c(=O)n(C3CC3)c(=O)c3c(Nc4ccc(I)cc4F)n(C)c(=O)c(C)c32)c1 [Trametinib] (partner 0.02 µM)
relative viability ([1]; first compound 0.08 µM): 0.466
relative viability ([1]; first compound 0.253 µM): 0.412
relative viability ([1]; first compound 0.8 µM): 0.36
relative viability ([1]; first compound 2.53 µM): 0.393
relative viability ([1]; first compound 8 µM): 0.454
relative viability ([2]; first compound 0.253 µM): 0.577
relative viability ([2]; first compound 0.8 µM): 0.562
relative viability ([2]; first compound 2.53 µM): 0.564
relative viability ([2]; first compound 8 µM): 0.623
relative viability ([3]; first compound 0.08 µM): 0.886
relative viability ([3]; first compound 0.253 µM): 0.819
relative viability ([3]; first compound 0.8 µM): 0.893
relative viability ([3]; first compound 2.53 µM): 0.904
relative viability ([3]; first compound 8 µM): 0.897
relative viability ([4]; first compound 0.08 µM): 0.589
relative viability ([4]; first compound 0.253 µM): 0.584
relative viability ([4]; first compound 0.8 µM): 0.566
relative viability ([4]; first compound 2.53 µM): 0.592
relative viability ([4]; first compound 8 µM): 0.533
relative viability ([5]; first compound 0.08 µM): 0.425
relative viability ([5]; first compound 0.253 µM): 0.463
relative viability ([5]; first compound 0.8 µM): 0.335
relative viability ([5]; first compound 2.53 µM): 0.565
relative viability ([5]; first compound 8 µM): 0.315
relative viability ([6]; first compound 0.08 µM): 0.463
relative viability ([6]; first compound 0.253 µM): 0.472
relative viability ([6]; first compound 0.8 µM): 0.455
relative viability ([6]; first compound 2.53 µM): 0.404
relative viability ([6]; first compound 8 µM): 0.352
relative viability ([7]; first compound 0.08 µM): 0.239
relative viability ([7]; first compound 0.253 µM): 0.0857
relative viability ([7]; first compound 0.8 µM): 0.131
relative viability ([7]; first compound 2.53 µM): 0.185
relative viability ([7]; first compound 8 µM): 0.14
relative viability ([8]; first compound 0.08 µM): 0.478
relative viability ([8]; first compound 0.253 µM): 0.391
relative viability ([8]; first compound 0.8 µM): 0.391
relative viability ([8]; first compound 2.53 µM): 0.44
relative viability ([8]; first compound 8 µM): 0.515
relative viability ([9]; first compound 0.253 µM): 0.294
relative viability ([9]; first compound 0.8 µM): 0.31
relative viability ([9]; first compound 2.53 µM): 0.344
relative viability ([9]; first compound 8 µM): 0.326
relative viability ([10]; first compound 0.08 µM): 0.814
relative viability ([10]; first compound 0.253 µM): 0.891
relative viability ([10]; first compound 0.8 µM): 0.792
relative viability ([10]; first compound 2.53 µM): 0.815
relative viability ([10]; first compound 8 µM): 0.802
relative viability ([11]; first compound 0.253 µM): 0.683
relative viability ([11]; first compound 0.8 µM): 0.651
relative viability ([11]; first compound 2.53 µM): 0.656
relative viability ([11]; first compound 8 µM): 0.607
relative viability ([12]; first compound 0.08 µM): 0.612
relative viability ([12]; first compound 0.253 µM): 0.662
relative viability ([12]; first compound 0.8 µM): 0.739
relative viability ([12]; first compound 2.53 µM): 0.458
relative viability ([12]; first compound 8 µM): 0.631
relative viability ([13]; first compound 0.08 µM): 0.293
relative viability ([13]; first compound 0.253 µM): 0.296
relative viability ([13]; first compound 2.53 µM): 0.296
relative viability ([13]; first compound 8 µM): 0.287
relative viability ([14]; first compound 0.08 µM): 0.652
relative viability ([14]; first compound 0.253 µM): 0.495
relative viability ([14]; first compound 0.8 µM): 0.441
relative viability ([14]; first compound 2.53 µM): 0.376
relative viability ([14]; first compound 8 µM): 0.412
relative viability ([15]; first compound 0.08 µM): 0.398
relative viability ([15]; first compound 0.253 µM): 0.355
relative viability ([15]; first compound 0.8 µM): 0.386
relative viability ([15]; first compound 2.53 µM): 0.358
relative viability ([15]; first compound 8 µM): 0.34
relative viability ([16]; first compound 0.08 µM): 0.66
relative viability ([16]; first compound 0.8 µM): 0.522
relative viability ([16]; first compound 2.53 µM): 0.48
relative viability ([16]; first compound 8 µM): 0.524
relative viability ([17]; first compound 0.08 µM): 0.191
relative viability ([17]; first compound 0.253 µM): 0.189
relative viability ([17]; first compound 0.8 µM): 0.166
relative viability ([17]; first compound 2.53 µM): 0.185
relative viability ([17]; first compound 8 µM): 0.207
relative viability ([18]; first compound 0.08 µM): 0.402
relative viability ([18]; first compound 0.253 µM): 0.505
relative viability ([18]; first compound 0.8 µM): 0.538
relative viability ([18]; first compound 2.53 µM): 0.546
relative viability ([18]; first compound 8 µM): 0.54
relative viability ([19]; first compound 0.08 µM): 0.396
relative viability ([19]; first compound 2.53 µM): 0.346
relative viability ([19]; first compound 8 µM): 0.409
relative viability ([20]; first compound 0.08 µM): 0.598
relative viability ([20]; first compound 0.253 µM): 0.583
relative viability ([20]; first compound 0.8 µM): 0.498
relative viability ([20]; first compound 2.53 µM): 0.492
relative viability ([20]; first compound 8 µM): 0.409
relative viability ([21]; first compound 0.08 µM): 0.377
relative viability ([21]; first compound 0.253 µM): 0.369
relative viability ([21]; first compound 0.8 µM): 0.291
relative viability ([21]; first compound 2.53 µM): 0.369
relative viability ([21]; first compound 8 µM): 0.318
relative viability ([22]; first compound 0.08 µM): 0.873
relative viability ([22]; first compound 0.253 µM): 0.871
relative viability ([22]; first compound 0.8 µM): 0.851
relative viability ([22]; first compound 2.53 µM): 0.872
relative viability ([22]; first compound 8 µM): 0.874
relative viability ([23]; first compound 0.253 µM): 0.538
relative viability ([23]; first compound 0.8 µM): 0.556
relative viability ([23]; first compound 2.53 µM): 0.532
relative viability ([23]; first compound 8 µM): 0.561
